System: Rsp5 HECT domain
Test: UbiFlu real-time fluorescence polarization kinetics with Rsp5 HECT domain
Type: biochemical, S. cerevisiae
Settings: in the presence of 8× SFlu

For O=C1OC2(c3ccc(O)cc3Oc3cc(O)ccc32)c2ccc(NC(=S)NCCS)cc21 [SFlu], the “inhibition of UbiFlu consumption” value was “no inhibition”.

— patent US10590462B2, “Probes and assays for measuring E3 ligase activity” (NORTHWESTERN UNIVERSITY, priority 2014, dated 2020)
